Measurements taken from patent US12491207B2, “Article of manufacture comprising local anesthetic, buffer, and glycosaminoglycan in syringe with improved stability” (Vaneltix Pharma, Inc., priority 2017, dated 2025).
Structures can show the parent of a compound that is named as a salt.

Test: Loss of lidocaine HCl on sterilization and storage in glass or plastic containers
Format: physicochemical
Method: This composition was packaged in 20-mL cyclic olefin polymer (COP) and polypropylene (PP) syringes; the polypropylene was not non-nucleated. Storage conditions were, as indicated below, either 25° C./60% relative humidity (RH) or 40° C./75% RH.
Testing points were as follows: at the initiation of the stability study, after 1 month, 2 months, 3 months, 6 months, and 12 months.
Additionally, the syringe parts (the plunger and the syringe body) were analyzed for leachables.

CCN(CC)CC(=O)Nc1c(C)cccc1C [lidocaine hydrochloride]
loss of lidocaine hydrochloride after sterilization (FIG. 9) (glass vials, 80 mM phosphate buffer): small loss
loss of lidocaine hydrochloride after sterilization (FIG. 9) (glass vials, different phosphate buffer molarities except 80 mM): no loss
loss of lidocaine hydrochloride after sterilization (FIG. 9) (plastic syringes, increasing with phosphate buffer molarity): significant loss
